The values that follow come from patent US20130109854A1, “Novel Methods for Preparation of (+)-1-ethyl-4-[2-(4-morpholinyl)ethyl)-3,3-diphenyl-2-pyrrolidinone and Salts Thereof” (priority 2011, published 2013).

For data set [1] the following is noted: cited from earlier work.
Data set [2] in a line: Stimulating ventilation or reversing respiratory depression (respiratory stimulant activity). The following applies: compared with racemic doxapram. Format: in vivo.
Data set [3] can be described thus: Acute side effects in animals. It is filed as in vivo. The conditions noted are these: compared with racemic doxapram or a salt thereof.

As to `CCN1CC(CCN2CCOCC2)C(c2ccccc2)(c2ccccc2)C1=O` (racemic) [doxapram], in data set [1] (administered intravenously), the “tidal volume and respiratory rate” value was “increase”. The “effect on stimulating respiration (breathing)” value in data set [1] (animals, Ward & Franko, 1962) is reported as “strong, dose-dependent effect”.

Take `CCN1CC(CCN2CCOCC2)C(c2ccccc2)(c2ccccc2)C1=O` (single isomer, unassigned; (-)) [(−)-doxapram]: the “activity in stimulating ventilation or reversing respiratory depression (desired beneficial pharmacological activity of racemic doxapram)” value in data set [2] is on record as “essentially devoid of activity”.

On to `CCN1C[C@H](CCN2CCOCC2)C(c2ccccc2)(c2ccccc2)C1=O` [(+)-doxapram, (+)-4-(2-(1-ethyl-5-oxo-4,4-diphenylpyrrolidin-3-yl)ethyl)morpholine], for which the “adverse side effects compared to administration of racemic doxapram” value in data set [3] was “significantly reduced adverse side effects”. Besides, the “activity in stimulating ventilation or reversing respiratory depression (desired beneficial pharmacological activity of racemic doxapram)” value in data set [2] is given as “most or all the desired beneficial pharmacological activity associated with the racemic doxapram”.
